Data from patent US20250115941A1, “Exposure device for exposing microorganisms to gaseous pollutants and detection system thereof” (priority 2023, published 2025).
In brackets after ≈: the same amount, converted by molar mass. Structures can show the parent of a compound that is named as a salt.

How the values were obtained:
Vibrio fischeri [1] = assay: Acute toxicity of gaseous VOCs to hydrogel-microsphere-fixed Vibrio fischeri in exposure chamber (luminescence change); assay type: cell-based; conditions: for IC50: Aliivibrio fischeri; for minimum detection limit: no pre-concentration; for IC50 (15 min) Ratio: liquid IC50 / gaseous IC50, 15 min; for IC50 (30 min) Ratio: liquid IC50 / gaseous IC50, 30 min; for IC50 (45 min) Ratio: liquid IC50 / gaseous IC50, 45 min; for IC50 (60 min) Ratio: liquid IC50 / gaseous IC50, 60 min
Description: A method for using the exposure device for exposing microorganisms to gaseous pollutants provided in the present application includes steps as follows: • (1) preparing the hydrogel microspheres with microorganisms: culturing microorganisms in a culture medium dissolved with 1.5% of sodium alginate for 3 h to 4 h, and after OD600 is greater than 0.1, uniformly dripping the microorganisms into a 1.5% calcium chloride solution through a peristaltic pump at a rate of 1.5 ml/min to obtain the hydrogel microspheres with microorganisms; taking out and placing the hydrogel microspheres in a culture medium for use; • (2) sequentially loading the hydrogel microspheres fixed with microorganisms in the multi-well exposure tray according to a detection requirement, and detecting an initial intensity of fluorescent signals of the hydrogel microspheres fixed with microorganisms; • (3) fixing the multi-well exposure tray to a lower end of the vertical pipe of the T-shaped air flow-mixing pipe through threads, and connecting the pressurizing air outlet pipe to the T-shaped air flow-mixing pipe, wherein silicone seal gaskets are mounted at all threaded connections to ensure leakproofness of the exposure device; • (4) placing the exposure device in an in-situ multi-toxicity endpoint detection system for VOCs or an in-situ multi-toxicity endpoint detection system for atmospheric particulate matter to make the gaseous pollutants enter the exposure device through the first and second depressurizing air inlet pipes at a flow rate ranging from 0.3 L/min to 2.0 L/min; and • (5) continuously introducing the gaseous pollutants for 15 min to 60 min, and then introducing clean air for 8 min to 10 min to completely replace the gaseous pollutants in the detection system; removing the multi-well exposure tray, and sequentially placing the hydrogel microspheres in the multi-well exposure tray into a 96 well plate, and detecting a final intensity of fluorescent signals of the hydrogel microspheres fixed with microorganisms in the plurality of channels by using a microplate reader to obtain an intensity change of fluorescent signals.
A commercial VOCs generator is used to accurately generate seven different VOCs with nine gradient concentrations, involving aldehydes (formaldehyde and acetaldehyde), pyridines (pyridine), alcohols (n-butyl alcohol), acyls and ketones (acetylacetone), benzenes, and phenols (phenol). Natural luminescent bacteria Vibrio fischeri as a target, is fixed by using hydrogel microspheres, and is arranged in an exposure chamber. VOCs are sequentially introduced into the exposure chamber at a flow rate of 0.5 L/min. After exposure for 15 min, 30 min, 45 min, and 60 min, Vibrio fischeri is taken out, and intensity change of fluorescent signals of Vibrio fischeri are measured by using a microplate reader. Concentration-acute toxicity curves of the gaseous pollutant comprising different VOCs and mixed VOCs are fitted by using analysis software, to obtain the IC50 value of acute toxicity of the gaseous pollutants.

Vibrio fischeri [2] = conditions: concentration ratio 10 times
Description: (1) According to a detection requirement in this embodiment, the quantity of the multi-well exposure tray that need to be loaded is 1, and only one type of the hydrogel microspheres fixed with natural fluorescent microorganisms Vibrio fischeri is provided, and the quantity of hydrogel microspheres fixed with microorganisms that need to be used is 60. An initial fluorescence intensity of each hydrogel microsphere is detected and recorded, and the hydrogel microspheres are placed in the multi-well exposure tray, the multi-well exposure tray is loaded into the exposure device, and the detection system is sealed. […]
(4) The system-controlled vacuum pump at the distal end of the detection system and the vacuum pump of the gas circulation device are turned on, and the concentrated VOCs is introduced into the exposure device at 0.5 L/min, wherein exposure is set to last 15 min, 30 min, 45 min, and 60 min; and stability of the flowmeter of the gas circulation device and the system-controlled flowmeter at the distal end of the detection system during the process is monitored.
(5) After exposure to VOCs is completed, a microplate reader is used to measure final fluorescence intensity of each hydrogel microsphere, and changes of the initial fluorescence intensity and the final fluorescence intensity are obtained.

Vibrio fischeri [3] = assay: Acute toxicity exposure experiments of VOCs in a liquid state (conventional method); assay type: cell-based; conditions: for IC50: Aliivibrio fischeri
[4] = system: recombined Escherichia coli carrying plasmids with different gene pathway; assay: Genotoxicity of gaseous dimethyl sulfate with the in-situ multi-toxicity endpoint detection system for VOCs (Embodiment 1); conditions: exposure 20-500 mg/m^3, 15 min, 0.5 L/min
Description: Embodiment 1: Genotoxicity of an artificial gaseous pollutant (dimethyl sulfate) is detected by using the in-situ multi-toxicity endpoint detection system for volatile organic compounds (VOCs) constructed in the present application. Specific steps are as follows:
In this embodiment, a Tenax TA multi-well polymer adsorbent is selected as the adsorption material to be filled in an adsorber of the atmospheric pre-concentrator, and a mixed liquid of 50% of ethanol and 50% of pure water is added to the gas-washing bottle and the high-temperature steam generator.
(2) According to a detection requirement in this embodiment, the quantity of the multi-well exposure tray that need to be loaded is 6, 29 types of hydrogel microspheres fixed with recombined Escherichia coli carrying plasmids with different gene pathway are provided, and the quantity of each type of hydrogel microspheres fixed with microorganisms that need to be used is 15. An initial fluorescence intensity of each hydrogel microsphere is detected and recorded, and the hydrogel microspheres are placed in the multi-well exposure tray, the multi-well exposure tray is loaded into the exposure device, and the detection system is sealed. […]

[5] = 0.25 h, gaseous exposure, 15 min, 0.5 L/min, read-out: IC50 (15 min) Gaseous
[6] = 0.5 h, gaseous exposure, 30 min, 0.5 L/min, read-out: IC50 (30 min) Gaseous
[7] = 0.75 h, gaseous exposure, 45 min, 0.5 L/min, read-out: IC50 (45 min) Gaseous
[8] = 1 h, gaseous exposure, 60 min, 0.5 L/min, read-out: IC50 (60 min) Gaseous
[9] = 0.25 h, 15 min, read-out: IC50 (15 min) Liquid
[10] = 0.5 h, 30 min, read-out: IC50 (30 min) Liquid
[11] = 0.75 h, 45 min, read-out: IC50 (45 min) Liquid
[12] = 1 h, 60 min, read-out: IC50 (60 min) Liquid

| SMILES | IC50 (Vibrio fischeri [1]; [5]) | IC50 (Vibrio fischeri [1]; [6]) | IC50 (Vibrio fischeri [1]; [7]) | IC50 (Vibrio fischeri [1]; [8]) | IC50 (15 min) Ratio (Vibrio fischeri [1]) | IC50 (30 min) Ratio (Vibrio fischeri [1]) | IC50 (45 min) Ratio (Vibrio fischeri [1]) | IC50 (60 min) Ratio (Vibrio fischeri [1]) | IC50 (Vibrio fischeri [3]; [9]) | IC50 (Vibrio fischeri [3]; [10]) | IC50 (Vibrio fischeri [3]; [11]) | IC50 (Vibrio fischeri [3]; [12]) | other results |
| --- | --- | --- | --- | --- | --- | --- | --- | --- | --- | --- | --- | --- | --- |
| Oc1ccccc1 [Phenol] | 0.0689 µg/mL (≈ 0.732 µM) | 0.0363 µg/mL (≈ 0.386 µM) | 0.028 µg/mL (≈ 0.298 µM) | 0.0202 µg/mL (≈ 0.215 µM) | 3921 | 7991 | 11424 | 15818 | 270 µg/mL (≈ 2870 µM) | 290 µg/mL (≈ 3080 µM) | 320 µg/mL (≈ 3400 µM) | 320 µg/mL (≈ 3400 µM) | minimum detection limit (Vibrio fischeri [1]; gaseous exposure): 20.31 mg/m^3; minimum detection limit at concentration ratio of 10 times (Vibrio fischeri [2]): 2.03 mg/m^3 |
| COS(=O)(=O)OC [dimethyl sulfate] | – | – | – | – | – | – | – | – | – | – | – | – | gene pathways significantly upregulated (of 29 key gene pathways) [4]: Nine of these gene pathways are significantly upregulated; genotoxicity / toxicity effects indicated [4]: may cause inhibition of cell division, oxidative stress, protein stress, and severe DNA damage, mutation, and recombination |
| c1ccncc1 [Pyridine] | 1.5 µg/mL (≈ 19 µM) | 1.25 µg/mL (≈ 15.8 µM) | 0.88 µg/mL (≈ 11.1 µM) | 0.5 µg/mL (≈ 6.32 µM) | 680 | 864 | 1295 | 2500 | 1020 µg/mL (≈ 12900 µM) | 1080 µg/mL (≈ 13700 µM) | 1140 µg/mL (≈ 14400 µM) | 1250 µg/mL (≈ 15800 µM) | – |
| CC=O [Acetaldehyde] | 2.12 µg/mL (≈ 48.1 µM) | 1.29 µg/mL (≈ 29.3 µM) | 0.83 µg/mL (≈ 18.8 µM) | 0.49 µg/mL (≈ 11.1 µM) | 302 | 450 | 699 | 1224 | 640 µg/mL (≈ 14500 µM) | 580 µg/mL (≈ 13200 µM) | 580 µg/mL (≈ 13200 µM) | 600 µg/mL (≈ 13600 µM) | – |
| CC(=O)CC(C)=O [Acetylacetone] | 0.28 µg/mL (≈ 2.8 µM) | 0.19 µg/mL (≈ 1.9 µM) | 0.13 µg/mL (≈ 1.3 µM) | 0.11 µg/mL (≈ 1.1 µM) | 1000 | 1316 | 2385 | 2273 | 280 µg/mL (≈ 2800 µM) | 250 µg/mL (≈ 2500 µM) | 310 µg/mL (≈ 3100 µM) | 250 µg/mL (≈ 2500 µM) | – |
| CCCCO [N-butyl alcohol] | – | – | – | – | 1705 | 2521 | 3472 | 4625 | – | – | – | – | IC50 (15 min) Gaseous (Vibrio fischeri [1]; gaseous exposure, 15 min, 0.5 L/min): 1.05 µg/mL (≈ 14.2 µM); IC50 (30 min) Gaseous (Vibrio fischeri [1]; gaseous exposure, 30 min, 0.5 L/min): 0.73 µg/mL (≈ 9.85 µM); IC50 (45 min) Gaseous (Vibrio fischeri [1]; gaseous exposure, 45 min, 0.5 L/min): 0.53 µg/mL (≈ 7.15 µM); IC50 (60 min) Gaseous (Vibrio fischeri [1]; gaseous exposure, 60 min, 0.5 L/min): 0.40 µg/mL (≈ 5.4 µM); IC50 (15 min) Liquid (Vibrio fischeri [3]; 15 min): 1790 µg/mL (≈ 24100 µM); IC50 (30 min) Liquid (Vibrio fischeri [3]; 30 min): 1840 µg/mL (≈ 24800 µM); IC50 (45 min) Liquid (Vibrio fischeri [3]; 45 min): 1840 µg/mL (≈ 24800 µM); IC50 (60 min) Liquid (Vibrio fischeri [3]; 60 min): 1850 µg/mL (≈ 25000 µM) |
| C=O [Formaldehyde] | 0.00481 µg/mL (≈ 0.16 µM) | 0.00234 µg/mL (≈ 0.0779 µM) | 0.00181 µg/mL (≈ 0.0603 µM) | 0.00129 µg/mL (≈ 0.043 µM) | 3395 | 6684 | 8519 | 11457 | 16.3 µg/mL (≈ 544 µM) | 15.6 µg/mL (≈ 521 µM) | 15.4 µg/mL (≈ 514 µM) | 14.8 µg/mL (≈ 492 µM) | minimum detection limit (Vibrio fischeri [1]; gaseous exposure): 1.3 mg/m^3; minimum detection limit at concentration ratio of 10 times (Vibrio fischeri [2]): 0.13 mg/m^3 |
